Data published in ChEMBL document CHEMBL5365543, “Benzamidine Conjugation Converts Expelled Potential Active Agents into Antifungals against Drug-Resistant Fungi” (J Med Chem, 2023).
Converted amounts (≈) assume the structure as drawn. The source made the active and inactive calls. The rule behind the calls is not given here.

Tests used:
Candida albicans [1] = assay: Antifungal activity against wild-type Candida albicans SC5314 assessed as inhibition of fungal growth measured after 24 hrs by CLSI based microtiter plate analysis; format: functional; conditions: Candida albicans, SC5314, 24 h, read-out: MIC80
Candida albicans [2] = assay: Antifungal activity against clinical isolate Candida albicans YEM15 overexpressing efflux pump CdrL and Cdr2 assessed as inhibition of fungal growth measured after 24 hrs by CLSI based microtiter plate analysis; format: functional
[Candida] auris [3] = Antifungal activity against clinical isolate fluconazole-resistant Candida auris CBS12774 assessed as inhibition of fungal growth measured after 24 hrs by CLSI based microtiter plate analysis; format: functional; conditions: Candidozyma auris
Candida albicans [4] = assay: Antifungal activity against clinical isolate fluconazole-resistant Candida albicans G5 harbouring MRR1 mutation overexpressing MdrL assessed as inhibition of fungal growth measured after 24 hrs by CLSI based microtiter plate analysis; format: functional
Candida albicans [5] = assay: Antifungal activity against clinical isolate Candida albicans SCUPC2R14MPG2A harbouring UPC2 mutation overexpressing […] Erg11 assessed as inhibition of fungal growth measured after 24 hrs by CLSI based microtiter plate analysis; format: functional
[6] = Induction of DNA damage in human HBE cells assessed as increase in gammaH2AX level at 8 microg/ml by Western blotting analysis; format: toxicity, cell-based; conditions: dose 8 µg/ml
Nakaseomyces glabratus = assay: Antifungal activity against clinical isolate fluconazole-resistant Candida glabrata CG2 assessed as inhibition of fungal growth measured after 24 hrs by CLSI based microtiter plate analysis; format: functional
[7] = Induction of drug resistance in wild-type Candida albicans SC5314 assessed as change in MIC at 0.5 times of MIC measured after 30 passages by broth microdilution method (reference value: 2 microg/ml); format: functional
Candida albicans [8] = assay: Antifungal activity against clinical isolate fluconazole-resistant Candida albicans Gu5 harbouring TAC1 mutation overexpressing efflux pump CdrL and Cdr2 assessed as inhibition of fungal growth measured after 24 hrs by CLSI based microtiter plate analysis; format: functional
Candida albicans [9] = assay: microbe, parasite or virus in culture; format: functional; conditions: DSY654, time 24 hrs
Description: Antifungal activity against efflux pump-deficient Candida albicans DSY654 assessed as inhibition of fungal growth measured after 24 hrs by CLSI based microtiter plate analysis

Candida albicans [10] = assay: Antifungal activity against clinical isolate fluconazole-resistant Candida albicans DSY296 harbouring TAC1 mutation overexpressing efflux pump CdrL and Cdr2 assessed as inhibition of fungal growth measured after 24 hrs by CLSI based microtiter plate analysis; format: functional
Candida albicans [11] = assay: Antifungal activity against clinical isolate Candida albicans YEM13 overexpressing efflux pump MdrL assessed as inhibition of fungal growth measured after 24 hrs by CLSI based microtiter plate analysis; format: functional
Cryptococcus neoformans = assay: Antifungal activity against clinical isolate fluconazole-resistant Cryptococcus neoformans H99 assessed as inhibition of fungal growth measured after 24 hrs by CLSI based microtiter plate analysis; format: functional
[Candida] auris [12] = Antifungal activity against clinical isolate fluconazole-resistant Candida auris CBS12776 assessed as inhibition of fungal growth measured after 24 hrs by CLSI based microtiter plate analysis; format: functional; conditions: Candidozyma auris
Candida albicans [13] = assay: Antifungal activity against clinical isolate fluconazole-resistant Candida albicans CA632 assessed as inhibition of fungal growth measured after 24 hrs by CLSI based microtiter plate analysis; format: functional
Candida tropicalis = assay: Antifungal activity against clinical isolate fluconazole-resistant Candida tropicalis CT10 assessed as inhibition of fungal growth measured after 24 hrs by CLSI based microtiter plate analysis; format: functional
[14] = Toxicity in BALB/c mouse infected with clinical isolate fluconazole-resistant Candida albicans Gu5 assessed as animal survival at 6 mg/kg, ip administered on day 1 and day 3 post fungal infection measured after 4 days; format: organism-based; conditions: in vivo, 96 h, time 4 day
Candida albicans [15] = assay: Antifungal activity against clinical isolate fluconazole-resistant Candida albicans Gu5 infected in BALB/c mouse assessed as fold reduction in kidney fungal burden at 6 mg/kg, ip administered on day 1 and day 3 post fungal infection measured after 7 days; format: functional; conditions: time 7.0 day

Structure (SMILES)	MIC80 (Candida albicans [1])	MIC80 (Candida albicans [2])	MIC80 ([Candida] auris [3])	MIC80 (Candida albicans [4])	MIC80 (Candida albicans [5])	Activity [6]	MIC80 (Nakaseomyces glabratus)	MIC [7]	MIC80 (Candida albicans [8])	MIC80 (Candida albicans [9])	MIC80 (Candida albicans [10])	MIC80 (Candida albicans [11])	MIC80 (Cryptococcus neoformans)	MIC80 ([Candida] auris [12])	MIC80 (Candida albicans [13])	MIC80 (Candida tropicalis)	Activity [14]	Activity (Candida albicans [15])
OC(Cn1cncn1)(Cn1cncn1)c1ccc(F)cc1F [FLUCONAZOLE]	2 µg/mL (≈ 6.53 µM)	64 µg/mL (≈ 209 µM)	> 128 µg/mL	> 128 µg/mL	> 128 µg/mL	Non-Toxic	64 µg/mL (≈ 209 µM)	128 µg/mL	> 128 µg/mL	0.5 µg/mL (≈ 1.63 µM)	> 128 µg/mL	64 µg/mL (≈ 209 µM)	2 µg/mL (≈ 6.53 µM)	> 128 µg/mL	> 128 µg/mL	> 128 µg/mL		
C=C1C(=O)[C@@]2(C)CC[C@@H]3[C@@]1(CC[C@H]1[C@@]3(C)CCC[C@@]1(C)C(=O)OCCC[P+](c1ccccc1)(c1ccccc1)c1ccccc1)C2.[I-]																	Toxic	inactive
